Source: ChEMBL document CHEMBL1201862, “PubChem BioAssay data set” (2004)
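Values below derive from 48-hour exposures of cells grown in 96-well plates, with endpoints linearly interpolated between the two concentrations bracketing the appropriate inhibition level. Here, GI50 denotes the concentration required for 50% inhibition of growth.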 Active and inactive are the calls of the source. Cut-off read from the data, not from the text of the source: active = GI50 up to about 1.1 µM and inactive = higher.

Tests used:
Experiment in all cases: growth of human tumour cells (NCI), 48 h
SF-268 = system: SF-268
DU-145 = system: DU-145
HCT-116 = system: HCT-116
ACHN = system: ACHN
M14 = system: M14
SK-OV-3 = system: SK-OV-3
UACC-62 = system: UACC-62
K562 = system: K562
IGROV-1 = system: IGROV-1
EKVX = system: EKVX
A549 = system: A549
MDA-N = system: MDA-N
SR = system: SR
HCC 2998 = system: HCC 2998
NCI/ADR-RES = system: NCI/ADR-RES
CAKI-1 = system: CAKI-1
Malme-3M = system: Malme-3M
HL-60 = system: HL-60
CCRF-CEM = system: CCRF-CEM
Hs-578T = system: Hs-578T

Structure (SMILES)	GI50 (SF-268)	GI50 (DU-145)	GI50 (HCT-116)	GI50 (ACHN)	GI50 (M14)	GI50 (SK-OV-3)	GI50 (UACC-62)	GI50 (K562)	GI50 (IGROV-1)	GI50 (EKVX)	GI50 (A549)	GI50 (MDA-N)	GI50 (SR)	GI50 (HCC 2998)	GI50 (NCI/ADR-RES)	GI50 (CAKI-1)	GI50 (Malme-3M)	GI50 (HL-60)	GI50 (CCRF-CEM)	GI50 (Hs-578T)
CC1=CSC(O)(c2ccc(Cl)cc2)c2noc(=O)n21 (configuration not stated)	> 100 µM (inactive)	> 100 µM (inactive)	53.5 µM (inactive)	> 100 µM (inactive)	> 100 µM (inactive)	> 100 µM (inactive)	44.9 µM (inactive)	61.1 µM (inactive)	> 100 µM (inactive)	> 100 µM (inactive)	> 100 µM (inactive)	88.3 µM (inactive)	50.7 µM (inactive)	14.4 µM (inactive)	53.7 µM (inactive)	> 100 µM (inactive)				
NC(=O)C(=O)N/N=C1\C(=O)N(c2ccc(Cl)cc2Cl)C(=O)C1C(=O)Nc1ccc(Cl)cc1Cl (configuration not stated)	> 100 µM (inactive)		> 100 µM (inactive)	> 100 µM (inactive)	> 100 µM (inactive)	> 100 µM (inactive)	> 100 µM (inactive)	> 100 µM (inactive)	> 100 µM (inactive)	> 100 µM (inactive)	> 100 µM (inactive)		> 100 µM (inactive)	> 100 µM (inactive)		> 100 µM (inactive)	> 100 µM (inactive)	> 100 µM (inactive)	> 100 µM (inactive)	
N#CC(c1ccc(Cl)cc1)c1cccc(Cl)n1 (configuration not stated)	38.4 µM (inactive)			32.7 µM (inactive)	79.8 µM (inactive)	42.1 µM (inactive)	42.6 µM (inactive)	58.9 µM (inactive)		39 µM (inactive)	31 µM (inactive)		45.1 µM (inactive)	61 µM (inactive)		25.3 µM (inactive)	74.5 µM (inactive)	47.1 µM (inactive)	> 100 µM (inactive)	
N#CC1(C=O)c2ccccc2C=CN1C(=O)c1ccccc1 (configuration not stated)	70.3 µM (inactive)		38.6 µM (inactive)	27.4 µM (inactive)	26.8 µM (inactive)		52.5 µM (inactive)	29.6 µM (inactive)	26.9 µM (inactive)	29.7 µM (inactive)	76.2 µM (inactive)		18.5 µM (inactive)	35.8 µM (inactive)		20.5 µM (inactive)	30.6 µM (inactive)	17.7 µM (inactive)	17.6 µM (inactive)	
CCOP(=O)(OCC)/C(C#N)=C/c1cnc[nH]1	> 100 µM (inactive)	> 100 µM (inactive)	> 100 µM (inactive)	> 100 µM (inactive)	> 100 µM (inactive)	> 100 µM (inactive)	> 100 µM (inactive)	> 100 µM (inactive)	> 100 µM (inactive)	> 100 µM (inactive)	> 100 µM (inactive)		> 100 µM (inactive)	> 100 µM (inactive)	> 100 µM (inactive)	> 100 µM (inactive)	> 100 µM (inactive)	> 100 µM (inactive)	> 100 µM (inactive)	> 100 µM (inactive)
C=C(C)C1CC=C(C(=O)O)CC1 (configuration not stated)	1190 µM (inactive)		793 µM (inactive)	1020 µM (inactive)	1750 µM (inactive)	2070 µM (inactive)	741 µM (inactive)	1200 µM (inactive)	774 µM (inactive)	2360 µM (inactive)	1210 µM (inactive)		1160 µM (inactive)	1080 µM (inactive)		1300 µM (inactive)	809 µM (inactive)	906 µM (inactive)	863 µM (inactive)	
CC(=O)c1sc2c(c1OC(=O)c1ccc(Cl)cc1)c(=O)n(-c1ccccc1)c(=S)n2-c1ccccc1	4.56 µM (inactive)	25.9 µM (inactive)	9.08 µM (inactive)	2.96 µM (inactive)	1.18 µM (inactive)	1.21 µM (inactive)	15.7 µM (inactive)	9.04 µM (inactive)	8.89 µM (inactive)	11.4 µM (inactive)	25.4 µM (inactive)		3.88 µM (inactive)	19.1 µM (inactive)	4.73 µM (inactive)	3.39 µM (inactive)	1.94 µM (inactive)	9.23 µM (inactive)	1.06 µM (active)	2.08 µM (inactive)
CCOC(=O)C1=C(C)NC(C)=C(C(=O)OCC)C1c1ccc(C)cc1	51.1 µM (inactive)	71.9 µM (inactive)	36.1 µM (inactive)	43 µM (inactive)	37.6 µM (inactive)	57 µM (inactive)	39.4 µM (inactive)	31 µM (inactive)	27 µM (inactive)	42.7 µM (inactive)	47.2 µM (inactive)	31.8 µM (inactive)		73.6 µM (inactive)		48.6 µM (inactive)			0.0193 µM (active)	39.2 µM (inactive)
Cc1cc(=O)n(-c2ccccc2)c(=O)o1	> 100 µM (inactive)		> 100 µM (inactive)	> 100 µM (inactive)	> 100 µM (inactive)	> 100 µM (inactive)	> 100 µM (inactive)	> 100 µM (inactive)	> 100 µM (inactive)	> 100 µM (inactive)	> 100 µM (inactive)		> 100 µM (inactive)	> 100 µM (inactive)		> 100 µM (inactive)	> 100 µM (inactive)	> 100 µM (inactive)	> 100 µM (inactive)	
